Laboratory results reported in patent US20100298141A1, “SUBSTITUTED PYRIDINE N-OXIDE HERBICIDES” (E. I. DU PONT DE NEMOURS AND COMPANY, priority 2007, published 2010).

How the values were obtained:
redroot pigweed = assay: Test A pre-/postemergence greenhouse test; assay type: in vivo, Amaranthus retroflexus; details: for Pigweed plant response rating: 0 to 100 scale
Method in brief: (§1)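 Greenhouse herbicide screen, pre- and postemergence in parallel. Soil: loam plus sand. Formulation: non-phytotoxic solvent mix with surfactant. Postemergence stage: one to two leaves, 2–10 cm height. Evaluation: visual injury, compared with untreated controls, about 10 days after treatment.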

corn = assay: Test A pre-/postemergence greenhouse test; assay type: in vivo, Zea mays; details: for Corn plant response rating: 0 to 100 scale
Method in brief: as §1

blackgrass = assay: Test C pre-/postemergence test; assay type: in vivo, Alopecurus myosuroides
Method in brief: (§2)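 Compounds in a non-phytotoxic solvent with surfactant applied preemergence to seeded pots and, at the same time, postemergence to plants 2–18 cm tall (1- to 4-leaf stage). Paddy tests: pots flooded to 3 cm, compound applied into the water, depth held throughout.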

wheat = assay: Test C pre-/postemergence test; assay type: in vivo, Triticum aestivum; details: Preemergence
Method in brief: as §2

wild oat = assay: Test C pre-/postemergence test; assay type: in vivo, Avena fatua; details: Preemergence
Method in brief: as §2

catchweed bedstraw = assay: Test C pre-/postemergence test; assay type: in vivo, Galium aparine; details: Preemergence
Method in brief: as §2

bermudagrass = assay: Test C pre-/postemergence test; assay type: in vivo, Cynodon dactylon
Method in brief: as §2

Surinam grass = assay: Test C pre-/postemergence test; assay type: in vivo, Brachiaria decumbens; details: Preemergence
Method in brief: as §2

crabgrass = assay: Test C pre-/postemergence test; assay type: in vivo, Digitaria sanguinalis; details: Preemergence
Method in brief: as §2

kochia = assay: Test C pre-/postemergence test; assay type: in vivo, Kochia scoparia; details: Preemergence
Method in brief: as §2

eastern black nightshade = assay: Test C pre-/postemergence test; assay type: in vivo, Solanum ptycanthum; details: Preemergence
Method in brief: as §2

pigweed = assay: Test C pre-/postemergence test; assay type: in vivo, Amaranthus retroflexus; details: Preemergence
Method in brief: as §2

[1] = system: common (oilseed) sunflower; assay: Test C pre-/postemergence test; assay type: in vivo, Helianthus annuus; details: Preemergence
Method in brief: as §2

velvetleaf = assay: Test C pre-/postemergence test; assay type: in vivo, Abutilon theophrasti; details: Preemergence
Method in brief: as §2

rice = assay: Test C flooded paddy test; assay type: in vivo, Oryza sativa; details: Flood
Method in brief: (§3)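 Test compounds are applied straight into paddy water held 3 cm above the soil surface, with that flood maintained for the whole test. After 13 to 15 days in the greenhouse, each species is scored visually relative to controls.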

duck salad = assay: Test C flooded paddy test; assay type: in vivo, Heteranthera limosa; details: Flood
Method in brief: as §3

barnyardgrass = assay: Test C flooded paddy test; assay type: in vivo, Echinochloa crus-galli; details: Flood
Method in brief: as §3

[2] = Postemergence, 125 g ai/ha, 0 is no effect, 100 is complete control
[3] = Postemergence, 500 g ai/ha, 0 is no effect, 100 is complete control
[4] = Preemergence, 125 g ai/ha, 0 no effect, 100 complete control
[5] = Preemergence, 500 g ai/ha, 0 to 100 scale where 0 is no effect and 100 is complete control
[6] = Preemergence, 31 g ai/ha, scale 0 to 100 (0 no effect, 100 complete control)
[7] = preemergence, 125 g ai/ha, scale 0 (no effect) to 100 (complete control)
[8] = 31 g ai/ha, scale 0 to 100 (0 no effect, 100 complete control)
[9] = 62 g ai/ha, scale 0 to 100, 0 no effect, 100 complete control, 13 to 15 days
[10] = 125 g ai/ha, scale 0 to 100, 0 no effect, 100 complete control, 13 to 15 days
[11] = 250 g ai/ha, scale 0 to 100 (0 no effect, 100 complete control)

Cn1nc(C(F)(F)F)c(C[S+]([O-])c2cc(C(C)(C)C)cc[n+]2[O-])c1OC(F)F (racemic) [Compound 24]
Pigweed plant response rating (redroot pigweed; [2]): 20 | Pigweed plant response rating (redroot pigweed; [3]): 50 | Pigweed plant response rating (redroot pigweed; [4]): 100 | Plant response rating, Pigweed (redroot pigweed; [5]): 100 | Corn plant response rating (corn; [2]): 0 | Corn plant response rating (corn; [3]): 40 | Corn plant response rating (corn; [4]): 0 | Plant response rating, Corn (corn; [5]): 40 | Blackgrass plant response rating (blackgrass; 62 g ai/ha, Preemergence, scale 0 to 100): 20 | Plant response rating, Blackgrass (blackgrass; [6]): 20 | Plant response rating (0 to 100), Blackgrass (blackgrass; Preemergence, 250 g ai/ha): 100 | Blackgrass plant response rating (blackgrass; [7]): 50 | Wheat plant response rating (wheat; 62 g ai/ha, scale 0 to 100): 40 | Plant response rating, Wheat (wheat; [8]): 0 | Oat, Wild plant response rating (wild oat; 62 g ai/ha, scale 0 to 100): 80 | Plant response rating, Oat, Wild (wild oat; [8]): 50 | Galium plant response rating (catchweed bedstraw; 62 g ai/ha, scale 0 to 100): 98 | Plant response rating, Galium (catchweed bedstraw; [8]): 0 | Plant response rating (0 to 100), Galium (catchweed bedstraw; 250 g ai/ha): 100 | Bermudagrass plant response rating (bermudagrass; 62 g ai/ha, Preemergence, scale 0 to 100 (0 no effect, 100 complete control)): 85 | Plant response rating, Bermudagrass (bermudagrass; [6]): 75 | Plant response rating (0 to 100), Bermudagrass (bermudagrass; Preemergence, 250 g ai/ha): 100 | Bermudagrass plant response rating (bermudagrass; [7]): 100 | Surinam Grass plant response rating (Surinam grass; 62 g ai/ha, scale 0 to 100): 40 | Plant response rating, Surinam Grass (Surinam grass; [8]): 20 | Crabgrass, Large plant response rating (crabgrass; 62 g ai/ha, scale 0 to 100): 100 | Plant response rating, Crabgrass, Large (crabgrass; [8]): 100 | Plant response rating (0 to 100), Crabgrass, Large (crabgrass; 250 g ai/ha): 100 | Kochia plant response rating (kochia; 62 g ai/ha, scale 0 to 100): 5 | Plant response rating, Kochia (kochia; [8]): 0 | Nightshade plant response rating (eastern black nightshade; 62 g ai/ha, scale 0 to 100): 100 | Plant response rating, Nightshade (eastern black nightshade; [8]): 100 | Pigweed plant response rating (pigweed; 62 g ai/ha, scale 0 to 100): 100 | Plant response rating, Pigweed (pigweed; [8]): 100 | Sunflower plant response rating ([1]; 62 g ai/ha, scale 0 to 100): 0 | Plant response rating, Sunflower [1, 8]: 0 | Velvetleaf plant response rating (velvetleaf; 62 g ai/ha, scale 0 to 100): 100 | Plant response rating, Velvetleaf (velvetleaf; [8]): 55 | Plant response rating, Rice (rice; [8]): 0 | Plant response rating, Rice (rice; [9]): 30 | Plant response rating, Rice (rice; [10]): 45 | Plant response rating, Rice (rice; [11]): 80 | Plant response rating, Ducksalad (duck salad; [8]): 0 | Plant response rating, Ducksalad (duck salad; [9]): 60 | Plant response rating, Ducksalad (duck salad; [10]): 80 | Plant response rating, Ducksalad (duck salad; [11]): 85 | Plant response rating, Barnyardgrass (barnyardgrass; [8]): 0 | Plant response rating, Barnyardgrass (barnyardgrass; [9]): 30 | Plant response rating, Barnyardgrass (barnyardgrass; [10]): 30 | Plant response rating, Barnyardgrass (barnyardgrass; [11]): 35
